# Assay results from ChEMBL document CHEMBL4308841, “Synthesis, in vitro antiproliferative activity, and kinase inhibitory effects of pyrazole-containing diarylureas and diarylamides” (Eur J Med Chem, 2018).
# What was measured:
# T47D [1] = assay: Growth inhibition of human T47D cells assessed as cell growth at 100 uM incubated for 48 hrs by sulforhodamine B assay relative to control; format: functional; details: read-out: Activity
# COLO 205 [2] = assay: Growth inhibition of human COLO205 cells incubated for 48 hrs by sulforhodamine B assay; format: functional, cell-based; details: COLO 205, 48 h
# MDA-MB-231 [3] = assay: Growth inhibition of human MDA-MB-231 cells assessed as cell growth at 100 uM incubated for 48 hrs by sulforhodamine B assay relative to control; format: functional; details: MDA-MB-231, 48 h, read-out: Activity
# SK-MEL-28 = assay: Growth inhibition of human SK-MEL-28 cells assessed as cell growth at 100 uM incubated for 48 hrs by sulforhodamine B assay relative to control; format: functional; details: SK-MEL-28, 48 h, read-out: Activity
# T47D [4] = assay: Growth inhibition of human T47D cells incubated for 48 hrs by sulforhodamine B assay; format: functional, cell-based
# 786-0 = assay: Growth inhibition of human 786-0 cells assessed as cell growth at 100 uM incubated for 48 hrs by sulforhodamine B assay relative to control; format: functional; details: 786-0, 48 h, read-out: Activity
# Hs-578T [5] = assay: Growth inhibition of human Hs578T cells incubated for 48 hrs by sulforhodamine B assay; format: functional, cell-based
# A549 = assay: Growth inhibition of human A549/ATCC cells assessed as cell growth at 0.1 uM incubated for 48 hrs by sulforhodamine B assay relative to control; format: functional; details: A549, 48 h, read-out: Activity
# LOX IMVI = assay: Growth inhibition of human LOXIMVI cells assessed as cell growth at 0.01 uM incubated for 48 hrs by sulforhodamine B assay relative to control; format: functional; details: read-out: Activity
# SN12C = assay: Growth inhibition of human SN12C cells incubated for 48 hrs by sulforhodamine B assay; format: functional, cell-based
# UO-31 = assay: Growth inhibition of human UO31 cells assessed as cell growth at 100 uM incubated for 48 hrs by sulforhodamine B assay relative to control; format: functional; details: UO-31, 48 h, read-out: Activity
# MDA-MB-231 [6] = assay: Growth inhibition of human MDA-MB-231 cells assessed as cell growth at 0.1 uM incubated for 48 hrs by sulforhodamine B assay relative to control; format: functional; details: MDA-MB-231, 48 h, read-out: Activity
# UACC-257 = assay: Growth inhibition of human UACC257 cells assessed as cell growth at 0.01 uM incubated for 48 hrs by sulforhodamine B assay relative to control; format: functional; details: UACC-257, 48 h, read-out: Activity
# OVCAR-5 = assay: Growth inhibition of human OVCAR5 cells assessed as cell growth at 100 uM incubated for 48 hrs by sulforhodamine B assay relative to control; format: functional; details: OVCAR-5, 48 h, read-out: Activity
# SF-268 = assay: Growth inhibition of human SF268 cells assessed as cell growth at 0.01 uM incubated for 48 hrs by sulforhodamine B assay relative to control; format: functional; details: SF-268, 48 h, read-out: Activity
# Hs-578T [7] = assay: Growth inhibition of human Hs578T cells assessed as cell growth at 100 uM incubated for 48 hrs by sulforhodamine B assay relative to control; format: functional; details: read-out: Activity
# PC-3 = assay: Growth inhibition of human PC3 cells assessed as cell growth at 1 uM incubated for 48 hrs by sulforhodamine B assay relative to control; format: functional; details: PC-3, 48 h, read-out: Activity
# ACHN = assay: Growth inhibition of human ACHN cells assessed as cell growth at 0.1 uM incubated for 48 hrs by sulforhodamine B assay relative to control; format: functional; details: read-out: Activity
# OVCAR-3 [8] = assay: Growth inhibition of human OVCAR3 cells assessed as cell growth at 100 uM incubated for 48 hrs by sulforhodamine B assay relative to control; format: functional; details: OVCAR-3, 48 h, read-out: Activity
# BT-549 = assay: Growth inhibition of human BT549 cells assessed as cell growth at 0.1 uM incubated for 48 hrs by sulforhodamine B assay relative to control; format: functional; details: BT-549, 48 h, read-out: Activity
# A498 = assay: Growth inhibition of human A498 cells assessed as cell growth at 0.01 uM incubated for 48 hrs by sulforhodamine B assay relative to control; format: functional; details: A498, 48 h, read-out: Activity
# IGROV-1 = assay: Growth inhibition of human IGROV1 cells assessed as cell growth at 100 uM incubated for 48 hrs by sulforhodamine B assay relative to control; format: functional; details: IGROV-1, 48 h, read-out: Activity
# SK-MEL-2 [9] = assay: Growth inhibition of human SK-MEL-2 cells assessed as cell growth at 0.01 uM incubated for 48 hrs by sulforhodamine B assay relative to control; format: functional; details: SK-MEL-2, 48 h, read-out: Activity
# SF-539 = assay: Growth inhibition of human SF539 cells assessed as cell growth at 100 uM incubated for 48 hrs by sulforhodamine B assay relative to control; format: functional; details: SF-539, 48 h, read-out: Activity
# SR = assay: Growth inhibition of human SR cells assessed as cell growth at 0.01 uM incubated for 48 hrs by sulforhodamine B assay relative to control; format: functional; details: read-out: Activity
# RXF 393 = assay: Growth inhibition of human RXF393 cells assessed as cell growth at 0.01 uM incubated for 48 hrs by sulforhodamine B assay relative to control; format: functional; details: RXF 393, 48 h, read-out: Activity
# SF-295 = assay: Growth inhibition of human SF295 cells assessed as cell growth at 0.01 uM incubated for 48 hrs by sulforhodamine B assay relative to control; format: functional; details: SF-295, 48 h, read-out: Activity
# CCRF-CEM = assay: Growth inhibition of human CCRF-CEM cells assessed as cell growth at 0.01 uM incubated for 48 hrs by sulforhodamine B assay relative to control; format: functional; details: read-out: Activity
# OVCAR-3 [10] = assay: Growth inhibition of human OVCAR3 cells assessed as cell growth at 1 uM incubated for 48 hrs by sulforhodamine B assay relative to control; format: functional; details: OVCAR-3, 48 h, read-out: Activity
# Malme-3M = assay: Growth inhibition of human MALME-3M cells assessed as cell growth at 100 uM incubated for 48 hrs by sulforhodamine B assay relative to control; format: functional; details: read-out: Activity
# COLO 205 [11] = assay: Growth inhibition of human COLO205 cells assessed as cell growth at 100 uM incubated for 48 hrs by sulforhodamine B assay relative to control; format: functional; details: COLO 205, 48 h, read-out: Activity
# SK-MEL-2 [12] = assay: Growth inhibition of human SK-MEL-2 cells assessed as cell growth at 10 uM incubated for 48 hrs by sulforhodamine B assay relative to control; format: functional; details: SK-MEL-2, 48 h, read-out: Activity
# [13] = read-out: LC50 (the source's name)
# [14] = read-out: pLC50 (the source's name) (converted)
compound,measurement,setting,value
COc1cc(Cl)cc(-c2nn(-c3cccc(NC(=O)Nc4ccc(Cl)c(C(F)(F)F)c4)c3)cc2-c2ccncc2)c1,growth at 100 µM,T47D [1],-18%
same,GI50,COLO 205 [2]; read-out: GI50,1.53 µM
same,CC50,COLO 205 [2]; [13],6.33 µM
same,TGI,COLO 205 [2]; read-out: TGI,31.1 µM
same,GI50,COLO 205 [2]; read-out: pGI50 (converted),1.51 µM
same,CC50,COLO 205 [2]; [14],6.31 µM
same,TGI,COLO 205 [2]; read-out: pTGI (converted),3.09 µM
same,growth at 100 µM,MDA-MB-231 [3],-88%
same,growth at 100 µM,SK-MEL-28,-88%
same,GI50,T47D [4]; read-out: GI50,1.25 µM
same,CC50,T47D [4]; [13],> 100 µM
same,TGI,T47D [4]; read-out: TGI,80.2 µM
same,GI50,T47D [4]; read-out: pGI50 (converted),1.26 µM
same,CC50,T47D [4]; [14],> 100 µM
same,TGI,T47D [4]; read-out: pTGI (converted),7.94 µM
same,growth at 100 µM,786-0,-81%
same,GI50,Hs-578T [5]; read-out: GI50,4.29 µM
same,CC50,Hs-578T [5]; [13],> 100 µM
same,TGI,Hs-578T [5]; read-out: TGI,67.7 µM
same,GI50,Hs-578T [5]; read-out: pGI50 (converted),4.27 µM
same,CC50,Hs-578T [5]; [14],> 100 µM
same,TGI,Hs-578T [5]; read-out: pTGI (converted),67.6 µM
same,growth at 0.1 µM,A549,98%
same,growth at 0.01 µM,LOX IMVI,98%
same,GI50,SN12C; read-out: GI50,1.56 µM
same,LC50,SN12C; read-out: LC50,> 100 µM
same,TGI,SN12C; read-out: TGI,82.1 µM
same,GI50,SN12C; read-out: pGI50 (converted),1.55 µM
same,LC50,SN12C; read-out: pLC50 (converted),> 100 µM
same,TGI,SN12C; read-out: pTGI (converted),8.13 µM
same,growth at 100 µM,UO-31,-50%
same,growth at 0.1 µM,MDA-MB-231 [6],91%
same,growth at 0.01 µM,UACC-257,91%
same,growth at 100 µM,OVCAR-5,-89%
same,growth at 0.01 µM,SF-268,95%
same,growth at 100 µM,Hs-578T [7],-6%
same,growth at 1 µM,PC-3,14%
same,growth at 0.1 µM,ACHN,57%
same,growth at 100 µM,OVCAR-3 [8],-56%
same,growth at 0.1 µM,BT-549,99%
same,growth at 0.01 µM,A498,57%
same,growth at 100 µM,IGROV-1,-16%
same,growth at 0.01 µM,SK-MEL-2 [9],102%
same,growth at 100 µM,SF-539,-78%
same,growth at 0.01 µM,SR,95%
same,growth at 0.01 µM,RXF 393,97%
same,growth at 0.01 µM,SF-295,59%
same,growth at 0.01 µM,CCRF-CEM,97%
same,growth at 1 µM,OVCAR-3 [10],24%
same,growth at 100 µM,Malme-3M,-35%
same,growth at 100 µM,COLO 205 [11],-79%
same,growth at 10 µM,SK-MEL-2 [12],-34%
O=C(Nc1cccc(-n2cc(-c3ccncc3)c(-c3cc(O)cc(Cl)c3)n2)c1)Nc1ccc(Cl)c(Cl)c1,growth at 100 µM,T47D [1],-39%
same,GI50,COLO 205 [2]; read-out: GI50,1.96 µM
same,CC50,COLO 205 [2]; [13],7.29 µM
same,TGI,COLO 205 [2]; read-out: TGI,37.8 µM
same,GI50,COLO 205 [2]; read-out: pGI50 (converted),1.95 µM
same,CC50,COLO 205 [2]; [14],7.24 µM
same,TGI,COLO 205 [2]; read-out: pTGI (converted),3.8 µM
same,growth at 100 µM,MDA-MB-231 [3],-24%
same,growth at 100 µM,SK-MEL-28,-52%
same,GI50,T47D [4]; read-out: GI50,2.32 µM
same,CC50,T47D [4]; [13],> 100 µM
same,TGI,T47D [4]; read-out: TGI,61.7 µM
same,GI50,T47D [4]; read-out: pGI50 (converted),2.4 µM
same,CC50,T47D [4]; [14],> 100 µM
same,TGI,T47D [4]; read-out: pTGI (converted),6.17 µM
same,growth at 100 µM,786-0,-58%
same,GI50,Hs-578T [5]; read-out: GI50,3.23 µM
same,CC50,Hs-578T [5]; [13],> 100 µM
same,TGI,Hs-578T [5]; read-out: TGI,> 100 µM
same,GI50,Hs-578T [5]; read-out: pGI50 (converted),3.24 µM
same,CC50,Hs-578T [5]; [14],> 100 µM
same,TGI,Hs-578T [5]; read-out: pTGI (converted),> 100 µM
same,growth at 0.1 µM,A549,99%
same,growth at 0.01 µM,LOX IMVI,106%
same,GI50,SN12C; read-out: GI50,2.78 µM
same,LC50,SN12C; read-out: LC50,> 100 µM
same,TGI,SN12C; read-out: TGI,10.1 µM
same,GI50,SN12C; read-out: pGI50 (converted),2.75 µM
same,LC50,SN12C; read-out: pLC50 (converted),> 100 µM
same,TGI,SN12C; read-out: pTGI (converted),18.2 µM
same,growth at 100 µM,UO-31,-27%
same,growth at 0.1 µM,MDA-MB-231 [6],85%
same,growth at 0.01 µM,UACC-257,96%
same,growth at 100 µM,OVCAR-5,-80%
same,growth at 0.01 µM,SF-268,94%
same,growth at 100 µM,Hs-578T [7],9%
same,growth at 1 µM,PC-3,72%
same,growth at 0.1 µM,ACHN,95%
same,growth at 100 µM,OVCAR-3 [8],-20%
same,growth at 0.1 µM,BT-549,93%
same,growth at 0.01 µM,A498,57%
same,growth at 100 µM,IGROV-1,-12%
same,growth at 0.01 µM,SK-MEL-2 [9],59%
same,growth at 100 µM,SF-539,-52%
same,growth at 0.01 µM,SR,57%
same,growth at 0.01 µM,RXF 393,93%
same,growth at 0.01 µM,SF-295,92%
same,growth at 0.01 µM,CCRF-CEM,96%
same,growth at 1 µM,OVCAR-3 [10],85%
same,growth at 100 µM,Malme-3M,-45%
same,growth at 100 µM,COLO 205 [11],-88%
